The subject of assay [1] is P. falciparum FCR-3 strain (ATCC 30932). The assay can be described thus: Screening of malarial protozoan growth inhibition (culture assay). The conditions noted are these: for EC50: Plasmodium falciparum, Erythrocyte, read-out: P. falciparum EC50; for Ratio of Selective Toxicity for Malarial Protozoan <chemotherapeutic coefficient>: [EC50 for mouse FM3A cell]/[EC50 for tropical fever malarial protozoan]; for malarial protozoan growth inhibiting activity (in words): summary of Table 1. The class given is cell-based. On the procedure:
In this experiment, P. falciparum FCR-3 strain (ATCC 30932) was employed as the tropical fever malarial protozoan. In order to verify the effect of the commercially available anti-malarial agent chloroquin on resistant strains, a chloroquin resistant malarial protozoan of the P. falciparum K1 strain was employed. The medium used in this experiment was a filter-sterilized RPMI1640 medium which was adjusted to pH 7.4 and supplemented with 10% human serum. The malarial protozoan was cultured under 5% O2, 4% CO2 and […] at 36.5° C. The hematocrit level (% volume of erythrocyte in erythrocyte suspension) was adjusted to 5% for use. The initial infection rate with the tropical fever malarial protozoan at the beginning of the cultivation was 0.1%. The cultivation was performed using a 24-well cultivation plate, replacing the culture medium everyday, and subcultured at an infection rate of 4%. The infection rate was obtained by making a thin layer smear preparation, which was subjected to Giemsa staining or Diff-Qick staining, and observed microscopically (immersed in oil, magnified to ×1000) after which the malarial protozoan infection rate was determined using the following equation.
Malarial protozoan infection rate=[(number of infected erythrocyte)/(total number of erythrocyte)]×100 The cultured malarial protozoan-infected erythrocyte was collected by centrifugation, and washed with a serum-supplemented medium, after which a non-infected erythrocyte was added to adjust the initial infection rate to 0.3%. At this time, the hematocrit rate was 3%. The sample used in the test was obtained by dissolving in sterilized water, dimethylformamide (DMF), or dimethylsulfoxide (DMSO) to create samples of desired concentration.
5 to 10 μl of the sample were added to a 24-well cultivation plate. The samples were tested in duplicates or triplicates. As a control, 10 μl/well of sterilized water, DMF or DMSO was employed.
Subsequently, to the above medium, 990 to 995 μl of the tropical fever malarial protozoan culture medium previously prepared were added by gentle pipetting to create a uniform suspension. The culture plate was incubated for 72 hours in a CO2—O2—N2 (5%, 5%, 90%) incubator, after which thin layer smear preparations of each well was made, stained, and observed microscopically, to determine the infection rate together with the infection rate for the control.
From the malarial protozoan infection rate obtained by the method described above, the reproductive rate was calculated, whereby obtaining the 50% growth inhibition concentration (EC50) for malarial protozoan.
Reproductive rate={([b]−[a])/([c]−[a])}×100 a: initial infection rate b: infection rate with sample added c: infection rate without sample (Control)

For assay [2], the system named is mouse breast cancer FM3A cells (F28-7 strain). The assay can be described thus: Mouse FM3A cell growth inhibition test. The class given is cell-based. The conditions noted are these: read-out: FM3A EC50. How it is done:
An F28-7 strain, a wild cell strain derived from mouse breast cancer FM3A cells was employed. A medium was prepared by supplementing an ES medium with 2% inactivated fetal calf serum, and incubated at 37° C. under 5% CO2. Under these conditions, the doubling time of the FM3A cell was about 12 hours.
Following preincubation, the cells in logarithmic growth phase were diluted with the medium to 5×10^4 cells/ml. The sample used was one prepared for the anti-malarial activity test of the malaria protozoan. 5 to 10 μl of the samples were added to a 24-well cultivation plate (final concentration after addition of medium was 1×10^−4 to 1×10^−6). The compounds were tested in duplicates or triplicates, and wells containing 10 μl of sterilized water, DMF or DMSO were also prepared as a control. Subsequently, 990 to 995 μl of the cultured cell suspension previously prepared were added by gentle pipetting, and uniformly suspended in the medium. After incubating for 48 hours, the number of cells in each well was counted using SELF CONTROLLER (CC-108, Toa Medical Electrics) and the reproductive rate was calculated by using the following equation.
Reproductive rate (%)={([C]−[A])/([B]−[A])}×100
A: initial number of cells
B: number of control cell after 48 hours
C: number of cells after 48 hours from sample addition
The cell growth inhibition activity was calculated from the number of cells in the well containing the sample and the number of cells in the control. From the results thus obtained, the cytotoxicity of each sample was evaluated and represented as the cell growth inhibition concentration (EC50). The EC50 value is the concentration (expressed as molar concentration) of a sample necessary to inhibit the reproductive rate of the control by 50%, wherein the reproductive rate or the rate of malarial protozoan infection for the control in which samples are not added to the medium of malarial protozoan or FM3A cell, is regarded as 100%.

The values below come from patent publication US6420372B1, “Febrifugine, isofebrifugine and method for producing the same” (Japan Science and Technology Corporation, priority 1999, dated 2002).

SMILES strings stand for the structures. Read-outs that look alike come from different tables or passages of the source.

For the molecule `O=c1c2ccccc2ncn1CC1(O)C[C@@H]2NCCC[C@H]2O1` (some centres unmarked) [Formula B0, reference compound], the EC50 was 200 nM in assay [1] (72 h) and 22000 nM in assay [2] (48 h). Also, the “Ratio of Selective Toxicity for Malarial Protozoan <chemotherapeutic coefficient>” value (shortened to “Ratio of Selective Toxicity”) in assay [1] was found to be 110.

Regarding `O=c1c2ccccc2ncn1CC1(O)C[C@@H]2NCCC[C@@H]2O1` (stereo partly drawn) [B, (2′S, 3′S)-isofebrifugine], the EC50 came to 0.076 nM in assay [1] (50% growth inhibition concentration, infected erythrocytes, 72 hours incubation, infection rate by stained smear) and 220 nM in assay [2] (cell growth inhibition concentration (cytotoxicity), 48 hours incubation, cell count). Besides, in assay [1], the “Ratio of Selective Toxicity” value came to 2895. Moreover, the “malarial protozoan growth inhibiting activity (in words)” value in assay [1] is listed as “selective malarial protozoan growth inhibiting activity”.

Take `O=C(C[C@@H]1NCCC[C@H]1O)Cn1cnc2ccccc2c1=O` [Formula A0, reference compound]: the results for the EC50 in assay [1] (72 h) and in assay [2] (48 h) were 190 nM and 20000 nM, respectively. Moreover, the “Ratio of Selective Toxicity” value in assay [1] is reported as 105.

Regarding `O=C(C[C@H]1NCCC[C@@H]1O)Cn1cnc2ccccc2c1=O` [A, (2′R, 3′S)-febrifugine], in assay [1] (72 h), the EC50 was 0.3 nM. In assay [1], the “Ratio of Selective Toxicity” value came out at 2667 and the “malarial protozoan growth inhibiting activity (in words)” value was “selective malarial protozoan growth inhibiting activity”. Also, the EC50 in assay [2] (48 h) is 800 nM.
